Laboratory results taken from ChEMBL document CHEMBL3885861, “Open TG-GATES”.

Species: Rattus norvegicus
Assay: Open TG-GATES - Regimen: Daily Repeat
Type: toxicity, organism-based, Sprague-Dawley
Parameters: regimen Daily Repeat, gender Male, age 6 weeks
Conditions: in vivo, po, 60 mg/kg, route gavage, dose level High; for APTT / Bas / Eos / Fbg / Hb / Ht / Lym / MCH / MCHC / MCV / Mono / Neu / PT / Plat / RBC / Ret / WBC: tissue Blood; for KIDNEY_L / KIDNEY_R / KIDNEY_TOTAL: tissue Kidney; for LIVER: tissue Liver; for A/G / ALP / ALT / AST / BUN / CRE / Ca / Cl / DBIL / GLC / IP / K / LDH / Na / PL / RALB / TBIL / TC / TG / TP / gamma-GTP: tissue Plasma

`CC(C)NNC(=O)c1ccncc1` [IPRONIAZID] showed a TERMINAL_BW (72 h, time 3 day) of 184.6 g, an APTT (72 h, time 3 day) of 22.8 s and a Bas (72 h, time 3 day) of 0%. For the same compound, the Eos (72 h, time 3 day) was 0.8%, the Fbg (72 h, time 3 day) was 317.4 mg/dL and the Hb (72 h, time 3 day) was 13.1 g/dL. The Ht (72 h, time 3 day) was 38.2%, the Lym (72 h, time 3 day) was 86.2% and the MCH (72 h, time 3 day) was 20.5 pg. It also gave an MCHC (72 h, time 3 day) of 34.4%, an MCV (72 h, time 3 day) of 59.6 fL and a Mono (72 h, time 3 day) of 1.6%. It also gave a Neu (72 h, time 3 day) of 10.8%, a PT (72 h, time 3 day) of 16.9 s and a Plat (72 h, time 3 day) of 145 x10_4/uL. The RBC (72 h, time 3 day) was 640.8 x10_4/ul, the Ret (72 h, time 3 day) was 5.5% and the WBC (72 h, time 3 day) was 90.9 x10_2/uL. The KIDNEY_L (72 h, time 3 day) was 0.9 g, the KIDNEY_R (72 h, time 3 day) was 0.9 g and the KIDNEY_TOTAL (72 h, time 3 day) was 1.7 g. For the same compound, the LIVER (72 h, time 3 day) was 8.1 g, the A/G (72 h, time 3 day) was 1.2 and the ALP (72 h, time 3 day) was 1455.4 IU/L. It also gave an ALT (72 h, time 3 day) of 34 IU/L, an AST (72 h, time 3 day) of 78.2 IU/L and a BUN (72 h, time 3 day) of 20.4 mg/dL. It also gave a CRE (72 h, time 3 day) of 0.2 mg/dL, a Ca (72 h, time 3 day) of 10.2 mg/dL and a Cl (72 h, time 3 day) of 108.2 meq/L. It also gave a DBIL (72 h, time 3 day) of 0.002 mg/dL, a GLC (72 h, time 3 day) of 175.4 mg/dL and an IP (72 h, time 3 day) of 7.2 mg/dL. It also gave a K (72 h, time 3 day) of 4.2 meq/L, an LDH (72 h, time 3 day) of 305.2 IU/L and a Na (72 h, time 3 day) of 143.4 meq/L. It also gave a PL (72 h, time 3 day) of 149.6 mg/dL, an RALB (72 h, time 3 day) of 3.2 g/dL and a TBIL (72 h, time 3 day) of 0.04 mg/dL. The TC (72 h, time 3 day) was 89.6 mg/dL, the TG (72 h, time 3 day) was 61.2 mg/dL and the TP (72 h, time 3 day) was 5.8 g/dL. For the same compound, the gamma-GTP (72 h, time 3 day) was 1.2 IU/L, the TERMINAL_BW ([…], time 7 day) was 201.3 g and the TERMINAL_BW ([…], time 14 day) was 239 g. The TERMINAL_BW ([…], time 28 day) was 299.7 g, the APTT ([…], time 7 day) was 21.6 s and the Bas ([…], time 7 day) was 0%. The Eos ([…], time 7 day) was 1%, the Fbg ([…], time 7 day) was 275.8 mg/dL and the Hb ([…], time 7 day) was 11.7 g/dL. The Ht ([…], time 7 day) was 33.9%, the Lym ([…], time 7 day) was 77.2% and the MCH ([…], time 7 day) was 20.4 pg. It also gave an MCHC ([…], time 7 day) of 34.4%, an MCV ([…], time 7 day) of 59.3 fL and a Mono ([…], time 7 day) of 2.2%. For the same compound, the Neu ([…], time 7 day) was 19%, the PT ([…], time 7 day) was 16.3 s and the Plat ([…], time 7 day) was 121.7 x10_4/uL. It also gave an RBC ([…], time 7 day) of 571.6 x10_4/ul, a Ret ([…], time 7 day) of 7.4% and a WBC ([…], time 7 day) of 126.5 x10_2/uL. The APTT ([…], time 14 day) was 21.3 s, the Bas ([…], time 14 day) was 0% and the Eos ([…], time 14 day) was 1%. It also gave a Fbg ([…], time 14 day) of 302.2 mg/dL, a Hb ([…], time 14 day) of 11.4 g/dL and a Ht ([…], time 14 day) of 35.7%. For the same compound, the Lym ([…], time 14 day) was 78%, the MCH ([…], time 14 day) was 22.2 pg and the MCHC ([…], time 14 day) was 31.8%. It also gave an MCV ([…], time 14 day) of 69.8 fL, a Mono ([…], time 14 day) of 2% and a Neu ([…], time 14 day) of 18.4%. It also gave a PT ([…], time 14 day) of 16.5 s, a Plat ([…], time 14 day) of 115.4 x10_4/uL and an RBC ([…], time 14 day) of 511.4 x10_4/ul. The Ret ([…], time 14 day) was 19.5%, the WBC ([…], time 14 day) was 131.9 x10_2/uL and the APTT ([…], time 28 day) was 21.5 s. For the same compound, the Bas ([…], time 28 day) was 0%, the Eos ([…], time 28 day) was 0.8% and the Fbg ([…], time 28 day) was 352.8 mg/dL. For the same compound, the Hb ([…], time 28 day) was 11.9 g/dL, the Ht ([…], time 28 day) was 35% and the Lym ([…], time 28 day) was 77%. It also gave an MCH ([…], time 28 day) of 21.6 pg, an MCHC ([…], time 28 day) of 33.9% and an MCV ([…], time 28 day) of 63.7 fL. For the same compound, the Mono ([…], time 28 day) was 2.2%, the Neu ([…], time 28 day) was 18.8% and the PT ([…], time 28 day) was 16.9 s. For the same compound, the Plat ([…], time 28 day) was 108.7 x10_4/uL, the RBC ([…], time 28 day) was 550.2 x10_4/ul and the Ret ([…], time 28 day) was 12.4%. It also gave a WBC ([…], time 28 day) of 121.5 x10_2/uL, a KIDNEY_L ([…], time 7 day) of 1 g and a KIDNEY_R ([…], time 7 day) of 0.9 g. It also gave a KIDNEY_TOTAL ([…], time 7 day) of 1.9 g, a KIDNEY_L ([…], time 14 day) of 1 g and a KIDNEY_R ([…], time 14 day) of 1 g. For the same compound, the KIDNEY_TOTAL ([…], time 14 day) was 2.1 g, the KIDNEY_L ([…], time 28 day) was 1.2 g and the KIDNEY_R ([…], time 28 day) was 1.2 g. It also gave a KIDNEY_TOTAL ([…], time 28 day) of 2.4 g, an LIVER ([…], time 7 day) of 8.5 g and an LIVER ([…], time 14 day) of 10.1 g. The LIVER ([…], time 28 day) was 11.8 g, the A/G ([…], time 7 day) was 1.2 and the ALP ([…], time 7 day) was 1212.6 IU/L. It also gave an ALT ([…], time 7 day) of 34.4 IU/L, an AST ([…], time 7 day) of 82 IU/L and a BUN ([…], time 7 day) of 22.2 mg/dL. The CRE ([…], time 7 day) was 0.2 mg/dL, the Ca ([…], time 7 day) was 10.1 mg/dL and the Cl ([…], time 7 day) was 108 meq/L. It also gave a DBIL ([…], time 7 day) of 0.024 mg/dL, a GLC ([…], time 7 day) of 180.6 mg/dL and an IP ([…], time 7 day) of 7 mg/dL. The K ([…], time 7 day) was 4 meq/L, the LDH ([…], time 7 day) was 241.4 IU/L and the Na ([…], time 7 day) was 142.8 meq/L. The PL ([…], time 7 day) was 151.6 mg/dL, the RALB ([…], time 7 day) was 3.1 g/dL and the TBIL ([…], time 7 day) was 0.086 mg/dL. For the same compound, the TC ([…], time 7 day) was 85.8 mg/dL, the TG ([…], time 7 day) was 55.2 mg/dL and the TP ([…], time 7 day) was 5.6 g/dL. For the same compound, the gamma-GTP ([…], time 7 day) was 1.6 IU/L, the A/G ([…], time 14 day) was 1.2 and the ALP ([…], time 14 day) was 1104 IU/L. It also gave an ALT ([…], time 14 day) of 41 IU/L, an AST ([…], time 14 day) of 79 IU/L and a BUN ([…], time 14 day) of 19.6 mg/dL. It also gave a CRE ([…], time 14 day) of 0.2 mg/dL, a Ca ([…], time 14 day) of 10 mg/dL and a Cl ([…], time 14 day) of 106.8 meq/L. The DBIL ([…], time 14 day) was 0.01 mg/dL, the GLC ([…], time 14 day) was 174 mg/dL and the IP ([…], time 14 day) was 7 mg/dL. The K ([…], time 14 day) was 4.1 meq/L, the LDH ([…], time 14 day) was 201.2 IU/L and the Na ([…], time 14 day) was 141.4 meq/L. For the same compound, the PL ([…], time 14 day) was 165.8 mg/dL, the RALB ([…], time 14 day) was 3 g/dL and the TBIL ([…], time 14 day) was 0.058 mg/dL. The TC ([…], time 14 day) was 92.4 mg/dL, the TG ([…], time 14 day) was 82.8 mg/dL and the TP ([…], time 14 day) was 5.6 g/dL. It also gave a gamma-GTP ([…], time 14 day) of 1.8 IU/L, an A/G ([…], time 28 day) of 1.1 and an ALP ([…], time 28 day) of 1056.8 IU/L. For the same compound, the ALT ([…], time 28 day) was 25 IU/L, the AST ([…], time 28 day) was 66.8 IU/L and the BUN ([…], time 28 day) was 18.6 mg/dL. For the same compound, the CRE ([…], time 28 day) was 0.2 mg/dL, the Ca ([…], time 28 day) was 10.2 mg/dL and the Cl ([…], time 28 day) was 105.8 meq/L. For the same compound, the DBIL ([…], time 28 day) was 0.004 mg/dL, the GLC ([…], time 28 day) was 182 mg/dL and the IP ([…], time 28 day) was 6.6 mg/dL. It also gave a K ([…], time 28 day) of 4.1 meq/L, an LDH ([…], time 28 day) of 156.6 IU/L and a Na ([…], time 28 day) of 141.8 meq/L. For the same compound, the PL ([…], time 28 day) was 149.6 mg/dL, the RALB ([…], time 28 day) was 3.1 g/dL and the TBIL ([…], time 28 day) was 0.09 mg/dL. It also gave a TC ([…], time 28 day) of 87 mg/dL, a TG ([…], time 28 day) of 76.6 mg/dL and a TP ([…], time 28 day) of 6 g/dL. It also gave a gamma-GTP ([…], time 28 day) of 2.4 IU/L.
